Measurements taken from patent publication US20230303540A1 (Merck Sharp & Dohme LLC, priority 2020, published 2023).

Target: GST-tagged truncated human mutant G2019S LRRK2 (Homo sapiens, UniProt Q5S007, G2019S)
Assay: LRRK2 G2019S Km ATP LanthaScreen assay
Assay type: biochemical
Conditions: 134 μM ATP (Km ATP), LRRKtide substrate, mean IC50 values; read-out: LRRK2 pIC50 (converted)
In short: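 LanthaScreen TR-FRET read with fluorescein-LRRKtide and 134 μM ATP (Km) in Tris pH 8.5/10 mM MgCl2 buffer. The enzyme was preincubated 15 min with compound at room temperature, and the reaction ran 90 min at ambient temperature. Stopped with EDTA plus Tb anti-phospho-LRRKtide antibody; the 520/495 nm ratio gave a 4-parameter logistic IC50, mean of several runs.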

Structure (SMILES)	IC50 [nM]
O[C@@H]1COC[C@@H]1N1CCN(c2cc3nc(Nc4cnn(C5CC5)c4Cl)ncc3cc2Cl)CC1 (single isomer, unassigned) [Ex-3.52, (3R,4R) or (3S,4S) 4-(4-{6-chloro-2-[(5-chloro-1-cyclopropyl-1H-pyrazol-4-yl)amino]quinazolin-7-yl}piperazin-1-yl)oxolan-3-ol]	0.887
O[C@@H]1COC[C@@H]1N1CCN(c2nc3nc(Nc4cnn(C5CC5)c4Cl)ncc3cc2Cl)CC1 (single isomer, unassigned) [Ex-16.1, (3S,4S) or (3R, 4R)-4-(4-(6-Chloro-2-((5-chloro-1-cyclopropyl-1H-pyrazol-4-yl)amino)pyrido[2,3-d]pyrimidin-7-yl)piperazin-1-yl)tetrahydrofuran-3-ol]	15.6
Cc1c(Nc2ncc3cc(Cl)c(N4CCN(C5COCC5O)CC4)cc3n2)cnn1C(C)(C)C#N (single isomer, unassigned) [Ex-6.21, (3S,4S) or (3R,4R) 2-[4-({6-chloro-7-[4-(4-hydroxyoxolan-3-yl)piperazin-1-yl]quinazolin-2-yl}amino)-5-methyl-1H-pyrazol-1-yl]-2-methylpropanenitrile]	0.323
C[C@H]1COC(=O)N1c1ccc2cnc(Nc3ccns3)nc2c1 [Ex-8.8, (4S)-4-methyl-3-{2-[(1,2-thiazol-5-yl)amino]quinazolin-7-yl}-1,3-oxazolidin-2-one]	5.08
CC1(O)CCN(c2cc3nc(Nc4cnn(C5CC5)c4Cl)ncc3cc2Cl)C1 (stereo not drawn) [Ex-1.38, 1-{6-chloro-2-[(5-chloro-1-cyclopropyl-1H-pyrazol-4-yl)amino]quinazolin-7-yl}-3-methylpyrrolidin-3-ol]	9.77
CC1(N2CCN(c3cc4cc(Nc5cnn(C6CC6)c5Cl)ncc4cc3Cl)CC2)COCC1O (single isomer, unassigned) [Ex-6.54, (3S,4S) or (3R,4R) 4-(4-(7-chloro-3-((5-chloro-1-cyclopropyl-1H-pyrazol-4-yl)amino)isoquinolin-6-yl)piperazin-1-yl)-4-methyltetrahydrofuran-3-ol]	1.21
CC1(N2CCN(c3cc4nc(Nc5cnn(C6CC6(F)F)c5Cl)ncc4cc3Cl)CC2)COCC1O (single isomer, unassigned) [Ex-6.35, (3S,4S) or (3R,4R) 4-[4-(6-chloro-2-{[5-chloro-1-(2,2-(R) or (S)difluorocyclopropyl)-1H-pyrazol-4-yl]amino}quinazolin-7-yl)piperazin-1-yl]-4-methyloxolan-3-ol]	20.8
CC1(N2CCN(c3cc4nc(Nc5cnn(C6CC6)c5Cl)ncc4cc3Cl)CC2)COC1 [Ex-4.17, 6-chloro-N-(5-chloro-1-cyclopropyl-1H-pyrazol-4-yl)-7-[4-(3-methyloxetan-3-yl)piperazin-1-yl]quinazolin-2-amine]	2.32
Cc1c(Nc2ncc3ccc(N4[C@H](C)CC[C@H]4C)cc3n2)cnn1CCF [Ex-1.12, (2R,5S or 2,5R)-7-[2,5-dimethylpyrrolidin-1-yl]-N-[1-(2-fluoroethyl)-5-methyl-1H-pyrazol-4-yl]quinazolin-2-amine]	20.2
CC(=O)N1CCN(c2cc3nc(Nc4cnn(C5CC5)c4Cl)ncc3cc2Cl)CC1 [Ex-1.30, 1-(4-{6-chloro-2-[(5-chloro-1-cyclopropyl-1H-pyrazol-4-yl)amino]quinazolin-7-yl}piperazin-1-yl)ethan-1-one]	7.16
O[C@H]1CCN(c2cc3nc(Nc4cnn(CC(F)F)c4Cl)ncc3cc2Cl)C1 [Ex-1.17, (3S)-1-(6-chloro-2-{[5-chloro-1-(2,2-difluoroethyl)-1H-pyrazol-4-yl]amino}quinazolin-7-yl)pyrrolidin-3-ol]	9.26
CC1(N2CCN(c3cc4nc(Nc5cnn(CC6CC6)c5Cl)ncc4cc3Cl)CC2)COC1 [Ex-4.48, 6-chloro-N-[5-chloro-1-(cyclopropylmethyl)-1H-pyrazol-4-yl]-7-[4-(3-methyloxetan-3-yl)piperazin-1-yl]quinazolin-2-amine]	0.625
CC1(n2ncc(Nc3ncc4cc(Cl)c(N5CCn6cnnc6C5)cc4n3)c2Cl)CC1 [Ex-4.45, 6-chloro-N-[5-chloro-1-(1-methylcyclopropyl)-1H-pyrazol-4-yl]-7-(5,6-dihydro[1,2,4]triazolo[4,3-a]pyrazin-7(8H)-yl)quinazolin-2-amine]	1.27
CC1CN(C2COCC2O)CCN1c1cc2nc(Nc3cnn(C4CC4)c3Cl)ncc2cc1Cl (single isomer, unassigned) [Ex-12.9, (3S,4S) or (3R, 4R)-4-((R) or (S)-4-(6-chloro-2-((5-chloro-1-cyclopropyl-1H-pyrazol-4-yl)amino)quinazolin-7-yl)-3-methylpiperazin-1-yl)tetrahydrofuran-3-ol]	8.64
CC1(N2CCN(c3cc4nc(Nc5cnn(C(C)(C)C)c5Cl)ncc4cc3Cl)CC2)COC1 [Ex-4.31, N-(1-tert-butyl-5-chloro-1H-pyrazol-4-yl)-6-chloro-7-[4-(3-methyloxetan-3-yl)piperazin-1-yl]quinazolin-2-amine]	1.01
Clc1cc2cnc(Nc3cnn(C45CC(C4)C5)c3Cl)nc2cc1N1CCNCC1 [Ex-12.10, N-(1-(bicyclo[1.1.1]pentan-1-yl)-5-chloro-1H-pyrazol-4-yl)-6-chloro-7-(piperazin-1-yl)quinazolin-2-amine]	2.13
CC(C)(O)Cn1ncc(Nc2ncc3cc(Cl)c(N4C[C@H]5CC[C@@H](C4)[C@@]5(C)O)cc3n2)c1Cl [Ex-3.30, (8-syn)-3-(6-chloro-2-{[5-chloro-1-(2-hydroxy-2-methylpropyl)-1H-pyrazol-4-yl]amino}quinazolin-7-yl)-8-methyl-3-azabicyclo[3.2.1] octan-8-ol]	5.09
Clc1cc2cnc(Nc3cnn(C45CC(C4)C5)c3Cl)nc2cc1N1CCC2(CCCO2)CC1 [Ex-3.40, N-[1-(bicyclo[1.1.1]pentan-1-yl)-5-chloro-1H-pyrazol-4-yl]-6-chloro-7-(1-oxa-8-azaspiro[4.5]decan-8-yl) quinazolin-2-amine]	9.76
FC1(F)CN(C2CCN(c3cc4nc(Nc5cnn(C6CC6)c5Cl)ncc4cc3Cl)CC2)C1 [Ex-1.25, 6-chloro-N-(5-chloro-1-cyclopropyl-1H-pyrazol-4-yl)-7-[4-(3,3-difluoroazetidin-1-yl)piperidin-1-yl]quinazolin-2-amine]	4.33
Cc1cc2cnc(Nc3cnn(C45CC(C4)C5)c3Cl)nc2cc1N1CCN(C2COCC2O)CC1 (single isomer, unassigned) [Ex-5.12, (3S,4S) or (3R,4R) 4-(4-(2-((1-(bicyclo[1.1.1]pentan-1-yl)-5-chloro-1H-pyrazol-4-yl)amino)-6-methylquinazolin-7-yl)piperazin-1-yl)tetrahydrofuran-3-ol]	5.17
CC(C)(O)CC(O)Cn1ncc(Nc2ncc3cc(Cl)c(N4CCC(C)(O)CC4)cc3n2)c1Cl (stereo not drawn) [Ex-6.5, 1-(5-chloro-4-{[6-chloro-7-(4-hydroxy-4-methylpiperidin-1-yl)quinazolin-2-yl]amino}-1H-pyrazol-1-yl)-4-methylpentane-2,4-diol]	27.3
Cc1cc2cnc(Nc3cnn(C4CC4(F)F)c3C)nc2cc1N1CCN(C2COCC2O)CC1 (single isomer, unassigned) [Ex-5.2, (3S,4S) or (3R,4R) 4-(4-(2-((1-(2,2-(R) or (S)difluorocyclopropyl)-5-methyl-1H-pyrazol-4-yl)amino)-6-methylquinazolin-7-yl)piperazin-1-yl)tetrahydrofuran-3-ol]	0.45
CC(C)(O)Cn1ncc(Nc2ncc3cc(Cl)c(N4CCC(O)CC4)cc3n2)c1Cl [Ex-3.11, 1-(6-chloro-2-{[5-chloro-1-(2-hydroxy-2-methylpropyl)-1H-pyrazol-4-yl]amino}quinazolin-7-yl)piperidin-4-ol]	0.488
C[C@H]1COC(=O)N1c1ccc2cnc(Nc3cnn4c3CCCC4)nc2c1 [Ex-8.13, (4S)-4-methyl-3-{2-[(4,5,6,7-tetrahydropyrazolo[1,5-a]pyridin-3-yl)amino]quinazolin-7-yl}-1,3-oxazolidin-2-one]	0.625
Cc1cc2cnc(Nc3cnn(C45CC(C4)C5)c3Cl)nc2cc1N1CCN(C2(C)COCC2O)CC1 (single isomer, unassigned) [Ex-13.5, (3S,4S) or (3R, 4R)-4-(4-(2-((1-(bicyclo[1.1.1]pentan-1-yl)-5-chloro-1H-pyrazol-4-yl)amino)-6-methylquinazolin-7-yl)piperazin-1-yl)-4-methyltetrahydrofuran-3-ol]	9.89
CCn1ncc(Nc2ncc3ccc(N4CCC4C)cc3n2)c1C (single isomer, unassigned) [Ex-1.10, (S) or (R) N-(1-ethyl-5-methyl-1H-pyrazol-4-yl)-7-(2-methylazetidin-1-yl)quinazolin-2-amine]	13.3
Cc1cc2cnc(Nc3cnn(C4CC4)c3C)nc2cc1N1CCN(C2COCC2O)CC1 (single isomer, unassigned) [Ex-5.7, (3S,4S) or (3R,4R) 4-(4-{2-[(1-cyclopropyl-5-methyl-1H-pyrazol-4-yl)amino]-6-methylquinazolin-7-yl}piperazin-1-yl)oxolan-3-ol]	0.197
CC1(O)CCN(c2cc3nc(Nc4cnn(C5CC5)c4Cl)ncc3cc2Cl)CC1 [Ex-3.26, 1-{6-chloro-2-[(5-chloro-1-cyclopropyl-1H-pyrazol-4-yl)amino]quinazolin-7-yl}-4-methylpiperidin-4-ol]	5.63
CCn1ncc(Nc2ncc3ccc(N4C(=O)OCC4C4CC4)cc3n2)c1C (single isomer, unassigned) [Ex-7.15, (R) or (S) 4-cyclopropyl-3-{2-[(1-ethyl-5-methyl-1H-pyrazol-4-yl)amino]quinazolin-7-yl}-1,3-oxazolidin-2-one]	9.26
Cc1c(Nc2cc3cc(N4CCN([C@]5(C)COC[C@@H]5O)CC4)c(Cl)cc3cn2)cnn1C1CC1 (single isomer, unassigned) [Ex-1.2, (3R,4R) or (3S,4S) 4-(4-(7-chloro-3-((1-cyclopropyl-5-methyl-1H-pyrazol-4-yl)amino)isoquinolin-6-yl)piperazin-1-yl)-4-methyltetrahydrofuran-3-ol]	8.41
